Experiment [1] deals with T1, COX-2 (Mus musculus, UniProt Q05769).
T1 construct: LPS, which was used to induce the expression of COX-2 in the RAW 264.7 cells; host or cells: RAW 264.7
T1 sequence (Q05769 18-604): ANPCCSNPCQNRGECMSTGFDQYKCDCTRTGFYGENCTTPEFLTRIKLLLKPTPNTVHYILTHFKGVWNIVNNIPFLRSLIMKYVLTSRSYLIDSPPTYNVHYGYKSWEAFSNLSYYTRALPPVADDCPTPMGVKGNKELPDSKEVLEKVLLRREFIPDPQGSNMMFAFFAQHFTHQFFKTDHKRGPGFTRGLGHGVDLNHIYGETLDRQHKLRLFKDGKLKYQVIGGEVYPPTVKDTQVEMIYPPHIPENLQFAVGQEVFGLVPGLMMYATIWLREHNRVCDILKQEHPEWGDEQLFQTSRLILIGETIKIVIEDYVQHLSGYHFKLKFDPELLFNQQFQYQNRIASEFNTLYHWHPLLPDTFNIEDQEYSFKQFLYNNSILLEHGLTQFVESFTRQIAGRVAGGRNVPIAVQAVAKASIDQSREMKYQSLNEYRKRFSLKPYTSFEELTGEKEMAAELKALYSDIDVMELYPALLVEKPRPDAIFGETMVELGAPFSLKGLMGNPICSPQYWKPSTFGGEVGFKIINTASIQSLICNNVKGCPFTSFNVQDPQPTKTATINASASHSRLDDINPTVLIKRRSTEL
Nature of the experiment: cell-based. Format: cell-based.
Protocol: On day one of the experiment, the log phase 264.7 cells were plated at 8×10^4 cells per well in 0.2 mL growth medium per well in a 96-well tissue culture plate. After 6 to 8 hours post plating, 100 μL of growth medium from each well was removed and replaced with 100 μL fresh medium. […] It was mixed until dissolved and stored at 4° C. Immediately before use, it was thawed at room temperature or in a 37° C. water bath. A new solution was prepared every 60 days.
On day two of the experiment, the test materials were prepared as 1000× stock in DMSO. For example, if the final concentration of the test material was to be 10 μg/mL, a 10 mg/mL stock was prepared by dissolving 10 mg of the test material in 1 mL of DMSO. Fresh test materials were prepared on day 2 of the experiment. In 1.7 mL microfuge tubes, 1 mL DMEM without FBS was added to obtain test concentrations of 0.05, 0.10, 0.5, and 1.0 μg/mL. 2 μL of the 1000×DMSO stock of the test material was added to the 1 mL of medium without FBS. The tube contained the final concentration of the test material was concentrated 2-fold. The tube was placed in incubator for 10 minutes to equilibrate.
One-hundred mL of medium was removed from each well of the cell plates prepared on day one. One-hundred mL of equilibrated 2× final concentration the test compounds were added to cells and incubated for 90 minutes. […]

The subject of experiment [2] is COX-2. The conditions noted are these: reported, specificity for COX-2 over COX-1; cited from earlier work.

For orientation: IC50 means the concentration at which inhibition is half-maximal. A lower IC50 goes with greater potency in that assay.

For `C=C1CC[C@@H]2[C@](C)(CO)[C@H](O)CC[C@@]2(C)[C@@H]1C/C=C1/C(=O)OC[C@H]1O` [Andrographolide], the “SPECIFICIY COX-1/COX-2” value on COX-2 [1] (COX-1 IC50 (enzyme) / COX-2 IC50 (RAW 264.7)) was 5.2. The IC50 against COX-2 [1] (second compound alone, PGE2 production by COX-2, RAW 264.7 cells, 24 h LPS) was 762 µM.

As to `CC(=O)Oc1ccccc1C(=O)O` [aspirin], the COX-2 specificity in the experiment on COX-2 [2] is given as 0.6.

The values above are taken from US6979470B2 (priority 2001, dated 2005).
